Laboratory results from BigSolDB 2.1.

N[C@H](Cc1c[nH]c2ccccc12)C(=O)O
solubility (mole fraction)
Details	in DMF	in ethanol	in isopropanol	in methanol	in water
283.15 K	0.00714	9.34e-05	1.29e-05	0.000179	0.00146
288.15 K	0.00749	0.000112	1.57e-05	0.000217	0.00159
293.15 K	0.00793	0.000135	1.9e-05	0.000261	0.00175
298.15 K	0.00834	0.000165	2.26e-05	0.000303	0.00192
303.15 K	0.00872	0.000202	2.64e-05	0.000358	0.00209
308.15 K	0.00912	0.000243	3.09e-05	0.000421	0.00227
313.15 K	0.00954	0.00029	3.62e-05	0.000489	0.00245
318.15 K	0.01	0.000348	4.16e-05	0.000575	0.00267
323.15 K	0.0104	0.00041	4.78e-05	0.000671	0.00288
328.15 K	0.0108	0.000484	5.44e-05	0.000779	0.00309
333.15 K	0.0113	0.000567	6.22e-05	0.000894	0.00332
